Tested on: white mouse models of P-407-induced dyslipidemia
Assay: Dyslipidemia regulation effects in P-407-induced endogenous dyslipidemia model in white mice
Assay type: in vivo
Settings: oral 100 mg/kg, 7 days; for Total cholesterol: Reduction in comparison with the model batch: 100 mg/kg
Experimental: The test on white mice was divided into 5 batches, each batch having 10 animals. The batches were subjected to injection and oral administration as follows: • Batch 1 (biological control): 0.9% saline was intraperitoneally injected at a volume of 0.1 mL/10 g mouse body weight and 0.2 mL/10 g distilled water was orally administered. • Batch 2 (model): 2% P-407 solution was intraperitoneally injected at 200 mg/kg (0.1 mL/10 g), and 0.2 mL/10 g distilled water was orally administered. • Batch 3 (positive control): 2% P-407 solution was intraperitoneally injected at 200 mg/kg (0.1 mL/10 g), and 100 mg/kg (0.2 mL/10 g) atorvastatin was orally administered. • Batch 4: 2% P-407 solution was intraperitoneally injected at 200 mg/kg (0.1 mL/10 g), the composition was orally administered at 0.24 g/kg/day (equivalent to the clinical intended dose), at 0.2 mL/10 g. • Batch 5: 2% P-407 solution was intraperitoneally injected at 200 mg/kg dose (0.1 mL/10 g), the composition was orally administered at dosage 0.72 g/kg/day (3 times as much as the clinical intended dose), at 0.2 mL/10 g.
White mice were subjected to oral administration of distilled water and the sample drug in 7 continuous days before the intraperitoneal injection with P-407 solution. After P-407 injection, the mice were left to starve completely but were free to drink water. After 24 hours from the P-407 injection, all of the mice received carotid arterial blood sampling for TG, TC, and HDL-C quantitative testing. Non-HDL-C levels were calculated based on the following formula: Non-HDL-C=TC−HDL-C (mmol/L) Test Results Total Cholesterol Levels

[1] = white mouse blood, 24 h after P-407 200 mg/kg i.p., n = 10

Structure (SMILES): CC(C)c1c(C(=O)Nc2ccccc2)c(-c2ccccc2)c(-c2ccc(F)cc2)n1CC[C@@H](O)C[C@@H](O)CC(=O)O [Atorvastatin, atorvastatin]
- Non-HDL-cholesterol level (Non-HDL-C=TC−HDL-C, white mouse blood, 24 h after P-407, n = 10): 6.08 ± 0.88 mmol/L
- Non-HDL-cholesterol: Reduction in comparison with the model (P-407 model): 12.1%
- Total cholesterol: Reduction in comparison with the model batch (P-407 model): 5.7%
- HDL-C level change versus model batch (↑ increase) (P-407 model, given with ↑): (↑ 19.1%)
- Total cholesterol: Reduction in comparison with the model batch (P-407 model, listed as atorvastatin): 5.7%
- Triglyceride: Reduction in comparison with the model batch (P-407 model, negative = increase): −46.3%
- HDL-C level [1]: 2.12 ± 0.41 mmol/L
- Total cholesterol level [1]: 8.20 ± 1.01 mmol/L
- Triglyceride level [1]: 9.77 ± 1.05 mmol/L
